Measured values reported in patent US20260198497A1, “A BENZENE RING-SUBSTITUTED PYRIMIDINECARBOXYLIC ACID COMPOUND, PREPARATION METHOD THEREFOR, HERBICIDAL COMPOSITION AND APPLICATION THEREOF” (QINGDAO KINGAGROOT CHEMICAL COMPOUND CO., LTD., priority 2023, published 2026).

System: Veronica
Assay: Post-emergence test on weeds
Assay type: in vivo
Set-up: key: 0 = no effect, 9 = completely dead (levels by growth control rate)
Details: 30 g a.i./ha, 3 weeks after application
Text: The criteria for activity levels of plant damage (i.e., growth control rate) are as follows: • Level 9: completely dead; • Level 8: growth control rate is greater than or equal to 90% and less than 100%; • Level 7: growth control rate is greater than or equal to 80% and less than 90%; • Level 6: growth control rate is greater than or equal to 70% and less than 80%; • Level 5: growth control rate is greater than or equal to 50% and less than 70%; • Level 4: growth control rate is greater than or equal to 30% and less than 50%; • Level 3: growth control rate is greater than or equal to 20% and less than 30%; • Level 2: growth control rate is greater than or equal to 10% and less than 20%; • Level 1: growth control rate is less than 10%; • Level 0: no effect.
The above growth control rates are fresh weight control rates.
Monocotyledonous and dicotyledonous weed seeds (Descurainia sophia, Capsella bursa-pastoris, Abutilon theophrasti, Galium spurium, Stellaria media, Lithospermum arvense, Rorippa indica, Alopecurus aequalis, Alopecurus japonicus, Eleusine indica, Beckmannia syzigachne, Sclerochloa dura, Erigeron canadensis, Phleum paniculatum, Veronica, Bromus japonicus, Aegilops tauschii, Phalaris arundinacea, Amaranthus retroflexus, Chenopodium, Commelina communis, Cichorium endivia, Convolvulus arvensis, Cirsium arvense, Solanum nigrum, Acalypha australis, Digitaria sanguinalis, Echinochloa crusgalli, Setaria viridis, Setaria pumila, Leptochloa chinensis, Monochoria vaginalis, Sagittaria trifolia, Schoenoplectiella juncoides, Cyperus rotundus, Cyperus iria, Cyperus difformis, Fimbristylis, Portulaca oleracea, Xanthium sibiricum, Ipomoea nil, Eschenbachia japonica, etc.) and major crop seeds (wheat, maize, paddy rice, soybean, cotton, oilseed rape, millet, sorghum, potato, sesame, castor plant, Chinese cabbage, radish, etc.) were placed in plastic pots filled with soil and then covered with 0.5-2 cm of soil to allow them to grow in a favorable greenhouse environment. Two weeks after sowing, the test plants were treated at the stage of 2-3 leaves. The test compounds of the present invention were individually dissolved with acetone, then added with Tween® 80, with 1.5 L/ha of methyl oleate emulsifiable concentrate as a synergist, diluted into solution of a certain concentration using a certain amount of water, and sprayed to plants using a spray tower. After drug application, the experimental results on weeds were collected after 3 weeks of cultivation in a greenhouse. The compounds were applied at 120, 60, 30, and 15 g a.i./ha in triplicate, and the results were averaged.

| Structure (SMILES) | activity level of plant damage (growth control rate), Veronica |
| --- | --- |
| COc1c(N)nc(-c2ccc(C(F)(F)F)c(OC)c2F)nc1C(=O)O [Compound 1] | 9 |
| CCOCCOC(=O)c1nc(-c2ccc(C(F)(F)F)c(OC)c2F)nc(N)c1OC [Compound 21] | 9 |
| CCCOCCOC(=O)c1nc(-c2ccc(C(F)(F)F)c(OC)c2F)nc(N)c1OC [Compound 22] | 9 |
| COCCOCCOC(=O)c1nc(-c2ccc(C(F)(F)F)c(OC)c2F)nc(N)c1OC [Compound 23] | 9 |
| CCCOC(=O)c1nc(-c2ccc(C(F)(F)F)c(OC)c2F)nc(N)c1OC [Compound 25] | 9 |
| COc1c(N)nc(-c2ccc(C(F)(F)F)c(OC)c2F)nc1C(=O)OC(C)C [Compound 26] | 9 |
| C=CCOC(=O)c1nc(-c2ccc(C(F)(F)F)c(OC)c2F)nc(N)c1OC [Compound 52] | 9 |
| C#CCOC(=O)c1nc(-c2ccc(C(F)(F)F)c(OC)c2F)nc(N)c1OC [Compound 57] | 9 |
| COc1c(N)nc(-c2ccc(C(F)(F)F)c(OC)c2F)nc1C(=O)OCCF [Compound 58] | 9 |
| COc1c(N)nc(-c2ccc(C(F)(F)F)c(OC)c2F)nc1C(=O)OCCCl [Compound 59] | 9 |
| COc1c(N)nc(-c2ccc(C(F)(F)F)c(OC)c2F)nc1C(=O)OCCBr [Compound 60] | 9 |
| COc1c(N)nc(-c2ccc(C(F)(F)F)c(OC)c2F)nc1C(=O)OCC(F)F [Compound 61] | 9 |
| COc1c(N)nc(-c2ccc(C(F)(F)F)c(OC)c2F)nc1C(=O)OCCCF [Compound 63] | 9 |
| COc1c(N)nc(-c2ccc(C(F)(F)F)c(OC)c2F)nc1C(=O)OCCC(F)(F)F [Compound 64] | 9 |
| COCOC(=O)c1nc(-c2ccc(C(F)(F)F)c(OC)c2F)nc(N)c1OC [Compound 72] | 9 |
| COc1c(N)nc(-c2ccc(C(F)(F)F)c(OC)c2F)nc1C(=O)OCCO [Compound 73] | 9 |
| COc1c(N)nc(-c2ccc(C(F)(F)F)c(OC)c2F)nc1C(=O)OCC(OC)OC [Compound 76] | 9 |
| CCOC(=O)COC(=O)c1nc(-c2ccc(C(F)(F)F)c(OC)c2F)nc(N)c1OC [Compound 81] | 9 |
| COC(=O)C(C)OC(=O)c1nc(-c2ccc(C(F)(F)F)c(OC)c2F)nc(N)c1OC (stereo not shown) [Compound 82] | 9 |
| CCOC(=O)OC(C)OC(=O)c1nc(-c2ccc(C(F)(F)F)c(OC)c2F)nc(N)c1OC (stereo not shown) [Compound 93] | 9 |
| COc1c(N)nc(-c2ccc(C(F)(F)F)c(OC)c2F)nc1C(=O)OCCSC [Compound 100] | 9 |
| COc1c(N)nc(-c2ccc(C(F)(F)F)c(OC)c2F)nc1C(=O)OCC#N [Compound 103] | 9 |
| COc1c(N)nc(-c2ccc(C(F)(F)F)c(OC)c2F)nc1C(=O)OCC1CC1 [Compound 117] | 9 |
| COc1c(N)nc(-c2ccc(C(F)(F)F)c(OC)c2F)nc1C(=O)OC1CCCC1 [Compound 119] | 9 |
| COc1c(N)nc(-c2ccc(C(F)(F)F)c(OC)c2F)nc1C(=O)OCC1CCCO1 (stereo not shown) [Compound 121] | 9 |
| COc1c(N)nc(-c2ccc(C(F)(F)F)c(OC)c2F)nc1C(=O)Oc1ccccc1 [Compound 129] | 9 |

| Structure (SMILES) | activity level of plant damage (growth control rate), Veronica |
| --- | --- |
| COc1c(N)nc(-c2ccc(C(F)(F)F)c(OC)c2F)nc1C(=O)OCc1ccccc1 [Compound 130] | 9 |
| COc1c(N)nc(-c2ccc(C(F)(F)F)c(OC)c2F)nc1C(=O)OCc1ccccc1F [Compound 133] | 9 |
| COc1cc(-c2nc(N)c(OC)c(C(=O)OCc3ccccn3)n2)ccc1C(F)(F)F [Compound 150] | 9 |
| COc1cc(-c2nc(N)c(OC)c(C(=O)OCc3cccnc3)n2)ccc1C(F)(F)F [Compound 151] | 9 |
| COc1cc(-c2nc(N)c(OC)c(C(=O)OCc3ccncc3)n2)ccc1C(F)(F)F [Compound 152] | 9 |
| COc1cc(-c2nc(N)c(OC)c(C(=O)SC)n2)ccc1C(F)(F)F [Compound 155] | 9 |
| CCSC(=O)c1nc(-c2ccc(C(F)(F)F)c(OC)c2)nc(N)c1OC [Compound 156] | 9 |
| COCCSC(=O)c1nc(-c2ccc(C(F)(F)F)c(OC)c2F)nc(N)c1OC [Compound 190] | 9 |
| COc1c(N)nc(-c2ccc(C(F)(F)F)c(OC)c2F)nc1C(=O)OCC(C)F (stereo not shown) [Compound 191] | 9 |
| COc1c(N)nc(-c2ccc(C(F)(F)F)c(OC)c2F)nc1C(=O)ON=C(C)C(C)(C)C [Compound 192] | 9 |
| COc1c(N)nc(-c2ccc(C(F)(F)F)c(OC)c2F)nc1C(=O)OCc1ccn(C)n1 [Compound 193] | 9 |
| COc1c(N)nc(-c2ccc(C(F)(F)F)c(OC)c2F)nc1C(=O)[O-].[K+] [Compound 199] | 9 |
| COc1c(N)nc(-c2ccc(C(F)(F)F)c(OC)c2F)nc1C(=O)[O-].[Na+] [Compound 200] | 9 |
| COC(=O)c1nc(-c2ccc(Br)c(OC)c2F)nc(N)c1OC [Compound 201] | 9 |
| CCOC(=O)c1nc(-c2ccc(Br)c(OC)c2F)nc(N)c1OC [Compound 202] | 9 |
| CCCOC(=O)c1nc(-c2ccc(Br)c(OC)c2F)nc(N)c1OC [Compound 203] | 9 |
| COc1c(N)nc(-c2ccc(Br)c(OC)c2F)nc1C(=O)OC(C)C [Compound 204] | 9 |
| COc1c(N)nc(-c2ccc(Br)c(OC)c2F)nc1C(=O)OCC(F)F [Compound 205] | 9 |
| COc1c(N)nc(-c2ccc(Br)c(OC)c2F)nc1C(=O)OCC#N [Compound 209] | 9 |
| COc1c(N)nc(-c2ccc(Br)c(OC)c2F)nc1C(=O)ON=C(C)C [Compound 210] | 9 |
| COCCOC(=O)c1nc(-c2ccc(Br)c(OC)c2F)nc(N)c1OC [Compound 212] | 9 |
| COc1c(N)nc(-c2ccc(Br)c(OC)c2F)nc1C(=O)OCCSC [Compound 214] | 9 |
| COc1c(N)nc(-c2ccc(Br)c(OC)c2F)nc1C(=O)OCC1CCCO1 (stereo not shown) [Compound 218] | 9 |
| COc1c(N)nc(-c2ccc(Br)c(OC)c2F)nc1C(=O)OCc1ccccc1 [Compound 219] | 9 |
| CCSC(=O)c1nc(-c2ccc(Br)c(OC)c2F)nc(N)c1OC [Compound 222] | 9 |
| COC(=O)c1nc(-c2ccc(C(F)(F)F)c(OC(F)F)c2F)nc(N)c1OC [Compound 247] | 9 |
